Data published in patent US20240018124A1, “MODULATORS OF FPR1 AND METHODS OF USING THE SAME” (BIOFRONT LTD, priority 2021, published 2024).

Legend:
FPR1 [1] = target: T1, FPR1 (Homo sapiens (Human), UniProt P21462); assay: Cyclic adenosine monophosphate (cAMP) assay, CHO-K1 cells stably overexpressing hFPR1; type: cell-based; details: 2.5 μM Forskolin and 0.25 nM WKYMVm (FPR1 agonist)
Protocol: Cyclic Adenosine Monophosphate (cAMP) Assay
CHO-K1 cells stably overexpressing hFPR1 were plated into 384-well cell culture plates (2,000/well/5 μL) in 1× Stimulation Buffer (LANCE Ultra cAMP Kit, Perkin Elmer, TRF0263). 1 μL compound solution (prepared in ddH2O containing 0.2% DMSO) was added to each well. Plates were centrifuged briefly, and cells were incubated at 37° C. in 5% CO2 for 10 minutes. 4 μL solution containing 2.5 μM Forskolin and 0.25 nM WKYMVm (an FPR1 agonist, GLPBIO, GC15140) was then added to each well. 5 μL of Eu-cAMP solution (diluted to manufacturer's recommended working concentration in Detection Buffer, LANCE Ultra cAMP Kit) and 5 μL of ULight-anti-cAMP solution (diluted in Detection Buffer, LANCE Ultra cAMP Kit) were added to each well. Plates were centrifuged briefly, and cells were incubated at room temperature for 1 hour. Fluorescence emission at 665 nm and 620 nm from the samples was measured by a Perkin Elmer Envision instrument.
(§1) The effects of the compounds of the present disclosure on regulating the FPR1-mediated cell signaling were measured by monitoring the cellular cAMP level change and anti-reactive oxygen species formation in human neutrophils in the presence of an FPR1 agonist, respectively, as illustrated by the examples in Table 1.

FPR1 [2] = target: T1, FPR1; assay: Reactive oxygen species (ROS) assay in human neutrophils stimulated with fMLP; type: cell-based; details: human neutrophils from whole blood; fMLP (500 nM); DCFH-DA fluorescence; read-out: Anti-ROS IC50
Protocol: Reactive Oxygen Species (ROS) Assay
Human whole blood was collected, and ACK lysis buffer (ThermoFisher, A1049201) was added at 3 times the volume of the blood sample to lyse the red blood cells. The sample was incubated on ice for 15 minutes, and gently mixed twice during the incubation. 10 mL DPBS was then added, and the sample was centrifuged for 8 minutes. After removing the supernatant, remaining cells were resuspended in RPMI1640 medium containing 3% FBS and centrifuged again for 10 minutes. After removing the supernatant, cells were again resuspended in RPMI1640 medium containing 3% FBS. Neutrophil cell count was determined using FACS analysis by APC-labeled CD11b antibody (Biolegend, 101211) and FITC-labeled CD66b antibody (Biolegend, 305104). Neutrophils were then plated into 96-well plates (300,000/well). Plates were centrifuged and supernatant was removed. Cells were resuspended in 80 μL of compound solution (prepared in RPMI1640 medium containing 3% FBS), then incubated at room temperature for 15 minutes. 20 μL solution containing DCFH-DA (at the manufacturer's recommended concentration, Yeasen Biotechnology, 50101ES01) and fMLP (500 nM) was then added. Cells were incubated at 37° C. in 5% CO2 for 20 minutes away from light. After incubation, cells were placed on ice for 5 minutes, washed twice with 200 μL ice-cold DPBS, then resuspended in ice-cold DPBS at 100 µL/well. Fluorescence from each sample was measured at 485 nm excitation and 535 nm emission.
as §1

T1 sequence (P21462 whole entry): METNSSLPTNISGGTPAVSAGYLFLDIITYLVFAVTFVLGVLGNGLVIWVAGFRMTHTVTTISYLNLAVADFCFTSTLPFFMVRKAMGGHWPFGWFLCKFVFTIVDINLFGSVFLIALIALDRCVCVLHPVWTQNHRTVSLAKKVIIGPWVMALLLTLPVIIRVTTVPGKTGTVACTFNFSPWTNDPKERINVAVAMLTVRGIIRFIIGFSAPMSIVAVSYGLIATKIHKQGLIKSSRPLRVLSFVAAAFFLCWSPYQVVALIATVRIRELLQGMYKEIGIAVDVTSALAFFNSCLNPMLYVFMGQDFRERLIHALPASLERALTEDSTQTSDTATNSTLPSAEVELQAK

With `C[C@H](NC(=O)c1c(NS(=O)(=O)c2ccc(Cl)cc2)c(-c2ccc(F)cc2)nn1C)C(C)(C)C` [Compound 38, (S)-4-((4-chlorophenyl)sulfonamido)-N-(3,3-dimethylbutan-2-yl)-3-(4-fluorophenyl)-1-methyl-1H-pyrazole-5-carboxamide] the IC50 (FPR1 [1]) was 100 to 1000 nM and the IC50 (FPR1 [2]) was 100 to 1000 nM.

For `C[C@H](NC(=O)c1c(NS(=O)(=O)c2ccc(C#N)cc2F)c(-c2ccc(F)cc2)nn1C)C(C)(C)C` [Compound 28, (S)-4-((4-cyano-2-fluorophenyl)sulfonamido)-N-(3,3-dimethylbutan-2-yl)-3-(4-fluorophenyl)-1-methyl-1H-pyrazole-5-carboxamide], the IC50 (FPR1 [1]) was 100 to 1000 nM and the IC50 (FPR1 [2]) was 100 to 1000 nM.

In the case of `COCc1ccccc1-c1nn(C)c(C(=O)N[C@@H](C)C(C)(C)C)c1NS(=O)(=O)c1ccc(C)cc1` [Compound 33, (S)—N-(3,3-dimethylbutan-2-yl)-3-(2-(methoxymethyl)phenyl)-1-methyl-4-((4-methylphenyl)sulfonamido)-1H-pyrazole-5-carboxamide], the IC50 (FPR1 [1]) is reported as 100 to 1000 nM and the IC50 (FPR1 [2]) is reported as 100 to 1000 nM.

In the case of `C[C@H](NC(=O)c1c(NS(=O)(=O)c2ccc(C#N)cc2)c(C2=CCC(F)(F)CC2)nn1C)C(C)(C)C` [Compound 43, (S)-4-((4-cyanophenyl)sulfonamido)-3-(4,4-difluorocyclohex-1-en-1-yl)-N-(3,3-dimethylbutan-2-yl)-1-methyl-1H-pyrazole-5-carboxamide], the IC50 (FPR1 [1]) is reported as 1000 to 25000 nM and the IC50 (FPR1 [2]) is reported as 100 to 1000 nM.

`Cc1ccc(S(=O)(=O)Nc2c(C3=CCOCC3)nn(C)c2C(=O)N[C@@H](C)C(C)(C)C)cc1` [Compound 16, (S)-3-(3,6-dihydro-2H-pyran-4-yl)-N-(3,3-dimethylbutan-2-yl)-1-methyl-4-((4-methylphenyl)sulfonamido)-1H-pyrazole-5-carboxamide] gave an IC50 (FPR1 [1]) of 1000 to 25000 nM and an IC50 (FPR1 [2]) of 100 to 1000 nM.

With `COCc1ncccc1-c1nn(C)c(C(=O)N[C@@H](C)C(C)(C)C)c1NS(=O)(=O)c1ccc(C#N)cc1` [Compound 42, (S)-4-((4-cyanophenyl)sulfonamido)-N-(3,3-dimethylbutan-2-yl)-3-(2-(methoxymethyl)pyridin-3-yl)-1-methyl-1H-pyrazole-5-carboxamide] the IC50 (FPR1 [1]) was greater than 25000 nM and the IC50 (FPR1 [2]) was greater than 25000 nM.

For `CO[C@H]1CC[C@@H](c2nn(C)c(C(=O)N[C@@H](C)C(C)(C)C)c2NS(=O)(=O)c2ccc(C3CC3)cc2)CC1` [Compound 20, 4-((4-cyclopropylphenyl)sulfonamido)-N—((S)-3,3-dimethylbutan-2-yl)-3-((1S,4R)-4-methoxycyclohexyl)-1-methyl-1H-pyrazole-5-carboxamide], the IC50 (FPR1 [1]) was 100 to 1000 nM and the IC50 (FPR1 [2]) was less than 100 nM.

`C[C@H](NC(=O)c1c(NS(=O)(=O)c2ccc(Cl)cc2)c(C2CCOCC2)nn1C)C(C)(C)C` [Compound 9, (S)-4-((4-chlorophenyl)sulfonamido)-N-(3,3-dimethylbutan-2-yl)-1-methyl-3-(tetrahydro-2H-pyran-4-yl)-1H-pyrazole-5-carboxamide] showed an IC50 (FPR1 [1]) of 100 to 1000 nM and an IC50 (FPR1 [2]) of 100 to 1000 nM.

In the case of `CO[C@H]1CC[C@@H](c2nn(C)c(C(=O)N[C@@H](C)C(C)(C)C)c2NS(=O)(=O)c2ccc(C)cc2)CC1` [Compound 6, N—((S)-3,3-dimethylbutan-2-yl)-3-((1s,4R)-4-methoxycyclohexyl)-1-methyl-4-((4-methylphenyl)sulfonamido)-1H-pyrazole-5-carboxamide], the IC50 (FPR1 [1]) is reported as 100 to 1000 nM and the IC50 (FPR1 [2]) is reported as less than 100 nM.

For `C[C@H](NC(=O)c1c(NS(=O)(=O)c2ccc(Cl)cc2)c(C2CCC3(CC2)OCCO3)nn1C)C(C)(C)C` [Compound 23, (S)-4-((4-chlorophenyl)sulfonamido)-N-(3,3-dimethylbutan-2-yl)-1-methyl-3-(1,4-dioxaspiro[4.5]decan-8-yl)-1H-pyrazole-5-carboxamide], the IC50 (FPR1 [1]) was 1000 to 25000 nM and the IC50 (FPR1 [2]) was 1000 to 25000 nM.

Work on `C[C@H](NC(=O)c1c(NS(=O)(=O)c2ccc(C#N)cc2)c(-c2ccc(F)cc2)nn1C)C(C)(C)C` [Compound 1, (S)-4-((4-cyanophenyl)sulfonamido)-N-(3,3-dimethylbutan-2-yl)-3-(4-fluorophenyl)-1-methyl-1H-pyrazole-5-carboxamide] yielded an IC50 (FPR1 [1]) of 100 to 1000 nM and an IC50 (FPR1 [2]) of 100 to 1000 nM.

With `COC1CC=C(c2nn(C)c(C(=O)N[C@@H](C)C(C)(C)C)c2NS(=O)(=O)c2ccc(Cl)cc2)CC1` (stereo partly drawn) [Compound 22, 4-((4-chlorophenyl)sulfonamido)-N—((S)-3,3-dimethylbutan-2-yl)-3-(4-methoxycyclohex-1-en-1-yl)-1-methyl-1H-pyrazole-5-carboxamide] the IC50 (FPR1 [1]) was 100 to 1000 nM and the IC50 (FPR1 [2]) was less than 100 nM.

`COc1ccc(S(=O)(=O)Nc2c(-c3ccc(F)cc3)nn(C)c2C(=O)N[C@@H](C)C(C)(C)C)cc1` [Compound 27, (S)—N-(3,3-dimethylbutan-2-yl)-3-(4-fluorophenyl)-4-((4-methoxyphenyl)sulfonamido)-1-methyl-1H-pyrazole-5-carboxamide] gave an IC50 (FPR1 [1]) of 100 to 1000 nM and an IC50 (FPR1 [2]) of 100 to 1000 nM.
